Data taken from US20140378541A1, “Synthetic Epigallocatechin Gallate (EGCG) Analogs” (WAYNE STATE UNIVERSITY, priority 2011, published 2014).

What was measured:
[1] = test system: mTOR pathway (phosphor-p70-S6K); assay: mTOR pathway, phosphor-p70-S6K Western blot, MDA-MB-231 cells; assay type: cell-based, human; conditions: 3 h
Procedure: (§1) (A) EGCG analogs 23 and 30 inhibited breast cancer cell proliferation. MDA-MB-231 cells were treated with indicated concentrations of 23, 30 or metformin for 24 h, followed by a MTT assay. *, P<0.1; **, P<0.01. Columns, mean of three experiments; bars, SD. (B) EGCG analogs 23 and 30 activated AMPK at a dose-dependent manner, measured by elevated level of phosphor-AMPKα and its downstream proteins of phosphor-Raptor. […] MDA-MB-231 cells were treated with indicated concentrations of 23 or 30 for 3 h, followed by Western blot analysis with the indicated antibodies. The numbers underneath the Western results of p-AMPKα indicated normalized phosphor-AMPKα/β-actin ratios. […]
The Western blot analysis was performed as follows: A whole cell extract was prepared from the treated cells as described previously (Landis-Piwowar et al., Cancer research, 2007, 67: 4303-4310; Chen et al., Cancer research, 2007, 67: 1636-1644; Chen et al., Biochemical pharmacology, 2005, 69: 1421-1432). The cell extracts (30 μg) were then separated by an SDS-PAGE gel and transferred to nitrocellulose membranes. […]

[2] = test system: AMPK signaling; assay: AMPK activation, Western blot, MDA-MB-231 cells; assay type: cell-based, human; conditions: 3 h; for AMPK activation (p-AMPK): 20 μM, metformin 10 mM as comparison; for AMPK activation (phosphor-AMPKα, phosphor-Raptor), dose dependence: indicated concentrations
Procedure: In FIG. 9A, human breast cancer MDA-MB-231 cells were treated with 20 μM of EGCG, Pro-EGCG and EGCG analogs (compounds 5, 7, 23, 30 and 31), or 10 mM of metformin for 3 hrs. Cell lysates were analyzed by Western blot using antibodies of anti-AMPK, p-AMPK, PARP, p-EGFR, EGFR or β-actin. In FIG. 9B, human breast cancer MDA-MB-231 cells were treated with 20 μM of EGCG analogs 23 and 30, 10 nM of docetaxel alone, or combined treatment with compounds 23 and 30 plus docetaxel for 24 hrs. Cell lysates were analyzed by Western blot using antibodies of anti-AMPK, p-AMPK, PARP, p-EGFR, EGFR or β-actin. In FIG. 9C, cells were incubated in medium (0.1% BSA without FBS) containing 20 μM of 23, 30, 2.5 μM of Erlotinib (Eb) alone or the combinations as indicated for 24 hrs. Cell lyses were analyzed by Western blot using antibodies of anti-AMPK, p-AMPK, PARP, p-EGFR, EGFR or β-actin.
as §1
A whole cell extract was prepared from the treated cells as described by Landis-Piwowar et al. Cancer Res. (2007) 67, 4303, Chen et al. Cancer Res. (2007) 67, 1636, and Chen et al. Biochem. Pharm. (2005) 69, 1421. Cell extracts (30 μg) were separated by an SDS-PAGE gel and transferred to nitrocellulose membranes. The membrances were blotted by specific antibodies including anti-AMPK, p-AMPK, EGFR, p-EGFR (Cell Signaling Tech., Danvers, Mass.), PARP (Enzo Life Sciences, Plymouth Meeting, Pa.), actin (Santa Cruz Biotechnology, Santa Cruz, Calif.). The membranes were visualized by enhanced chemiluminescence, as described previously by Landis-Piwowar et al. Cancer Res. (2007) 67, 4303, Chen et al. Cancer Res. (2007) 67, 1636, and Chen et al. Biochem. Pharm. (2005) 69, 1421.
The Western blot analysis was performed as follows: A whole cell extract was prepared from the treated cells as described previously (Landis-Piwowar et al., Cancer research, 2007, 67: 4303-4310; Chen et al., Cancer research, 2007, 67: 1636-1644; Chen et al., Biochemical pharmacology, 2005, 69: 1421-1432). The cell extracts (30 μg) were then separated by an SDS-PAGE gel and transferred to nitrocellulose membranes. The membrances were blotted by specific antibodies including anti-AMPK, p-AMPK, EGFR, p-EGFR (Cell Signaling Tech. Danvers, Mass.), PARP (Enzo Life Sciences, Plymouth Meeting, Pa.), actin (Santa Cruz Biotechnology, Santa Cruz, Calif.). The membranes were visualized by enhanced chemiluminescence, as described previously (Landis-Piwowar et al., Cancer research, 2007, 67: 4303-4310; Chen et al., Cancer research, 2007, 67: 1636-1644; Chen et al., Biochemical pharmacology, 2005, 69: 1421-1432).
In FIG. 9A, human breast cancer MDA-MB-231 cells were treated with 20 μM of EGCG, Pro-EGCG and other EGCG analogs (compounds 5, 7, 23, 30 and 31), or 10 mM of metformin for 3 hrs. Cell lysates were analyzed by Western blot using antibodies of anti-AMPK, p-AMPK, PARP, p-EGFR, EGFR or β-actin. In FIG. 9B, human breast cancer MDA-MB-231 cells were treated with 20 μM of EGCG analogs 23 and 30, 10 nM of docetaxel alone, or combined treatment with compounds 23 and 30 plus docetaxel for 24 hrs.

[3] = test system: MDA-MB-231 cells; assay: Mammosphere formation assay; assay type: cell-based; conditions: Homo sapiens, MDA-MB-231, 168 h, 7 days
Procedure: MDA-MB-231 cells were seeded in low attached 6-well plates (1000 cells/well) and treated with indicated concentrations of 23 and 30 for 7 days, followed by calculating numbers of mammosphere (A) and taking photos of mammosphere morphology (B). Metformin and EGCG were served as control. *, P<0.1; **, P<0.01. Columns, mean of three experiments; bars, SD.
Mammosphere formation assay was performed to assess the capacity of cancer stem cell self-renewal. Single cell suspensions of MDA-MB-231 cells were thoroughly suspended and plated on ultra low adherent wells of 6-well plates (Corning, Lowell, Mass.) at 1000 cells/well in 1.5 ml of sphere formation medium (1:1 DMEM/F12 medium supplemented with 50 units/ml penicillin, […] streptomycin, B-27 and N-2). One milliliter of sphere formation medium was added every 3-4 days. After 7 days of incubation with different concentrations of EGCG analogs 23, 30 or metformin, the formed spheres were collected by centrifugation at 300 g for 5 min and counted with an inverted phase-contrast Zeiss Axiovert 25 microscope.

SMILES | phosphor-p70-S6K level [1] | AMPK activation (p-AMPK) [2] | AMPK activation (phosphor-AMPKα, phosphor-Raptor), dose dependence [2] | inhibition at 10 µM [3] [%] | inhibition at 20 µM [3] [%]
Nc1ccc(C(=O)O[C@H]2Cc3ccccc3C[C@H]2OC(=O)c2ccc(N)cc2)cc1 [Compound 30] | decreased phosphor-p70-S6K | more potent AMPK activators even at lower concentration than metformin | activated AMPK in a dose-dependent manner | 52.2 | 73.3
O=C(O[C@H]1Cc2ccccc2C[C@H]1OC(=O)c1cc(O)c(Br)c(O)c1)c1cc(O)c(Br)c(O)c1 [Compound 23] | decreased phosphor-p70-S6K | more potent AMPK activators even at lower concentration than metformin | activated AMPK in a dose-dependent manner | 45.1 | 66.7
O=C(O[C@@H]1Cc2c(O)cc(O)cc2O[C@@H]1c1cc(O)c(O)c(O)c1)c1cc(O)c(O)c(O)c1 [Compound 1, (−)-Epigallocatechin gallate, reference compound] | – | can activate AMPK signaling | – | 20.1 | 51.3
